Laboratory results taken from patent US8859574B2 (IRM LLC, priority 2008, dated 2014).

molecular target: T1, IGF-1R Ba/F3 (Homo sapiens, UniProt P08069); assay: Ba/F3 Cell Viability Inhibition Assay (IGF-1R Ba/F3); type: cell-based, murine; conditions: Tel-TK transformed Ba/F3 cells, 48 hours, Britelite luminescence
T1 construct: fused on or other part: TEL- (or BCR-) IGF-1R in Ba/F3: the kinase part holds the site
From the text: The IC50 of a drug may be determined constructing a dose-response curve and examining the effect of different concentrations of antagonist on reversing agonist activity. IC50 values may be calculated for a given antagonist by determining the concentration needed to inhibit half of the maximum biological response of the agonist. To calculate IC50 values, a series of dose-response data (e.g., drug concentrations x1, x2, . . . , xn and growth inhibition y1, y2, . . . , yn, the values of y are in the range of 0-1) is generated. IC50 values may be determined by a computer-aided system using the formula: y=D+((A−D)/(1+10^(x-log(IC50)B) • where A is the ratio of growth inhibition between lowest drug concentration and control; B is the slope of sigmoidal curvel; and D is the ratio of growth inhibition between highest drug concentration and control.
Ba/F3 is a murine IL-3-dependent pro-B lymphoma cell line. Parental Ba/F3 cells are used to generate a panel of sublines whose proliferation and survival is rendered IL-3-independent by stable transduction with individual tyrosine kinases activated by fusion with the amino-terminal portion of TEL (amino acid 1-375) or BCR. In order to generate Ba/F3 cell lines transformed by Tel-Tyrosine Kinase (TK) fusions, parental Ba/F3 cells are infected with a retrovirus harboring each TEL-fusion kinase and subjected to puromycin selection and IL-3 withdrawal to obtain IL-3-independent, transformed Ba/F3 cells.
Each transformed Ba/F3 cells are cultured in RPMI-1640 media (Gibco Cat #11875093, Carlsbad, Calif.) supplemented with 10% FBS (Hyclone Cat #SV30014.03, Logan, Utah), 4.5 g/L glucose (Sigma #G5400, St. Louis, Mo.), 1.5 g/L sodium bicarbonate (Biowhittaker #17-613E, Walkersville, Md.) and Pen/Strep (Gibco #10378-016, Carlsbad, Calif.). Cells are splitted twice weekly.
The potency of test compounds against various Tel-TK transformed Ba/F3 lines is determined as follows. Exponentially growing BaF3 Tel-TK cells are diluted in fresh medium to 75,000 cells/mL and seeded into 384-well plates (3750 cells/well) at 50 μL/well using a μFill liquid dispenser (BioTek, Winooski, Vt., USA). Duplicate plates are run for each cell line. Test and control compounds are serially diluted with DMSO and arrayed in a polypropylene 384-well plate. […] of compound is transferred into the assay plates using a pin-transfer device, and the plates are incubated at 37° C. (5% CO2) for 48 hours. 25 μL Britelite (Perkin Elmer) is added and luminescence is quantified using Analyst GT (Molecular Devices). Custom curve-fitting software is used to produce a logistic fit of percent cell viability as a function of the logarithm of inhibitor concentration. The IC50 is interpolated as the concentration of compound needed to reduce cell viability to 50% of a DMSO control. Parental Ba/F3 cells that are maintained and cultured in presence of IL-3 (1 ng/ml in final) are diluted in fresh medium containing IL-3 (1 ng/ml in final) to 75,000 cells/mL following the same procedure as described above.

T1 sequence (P08069 999-1274 limits assumed): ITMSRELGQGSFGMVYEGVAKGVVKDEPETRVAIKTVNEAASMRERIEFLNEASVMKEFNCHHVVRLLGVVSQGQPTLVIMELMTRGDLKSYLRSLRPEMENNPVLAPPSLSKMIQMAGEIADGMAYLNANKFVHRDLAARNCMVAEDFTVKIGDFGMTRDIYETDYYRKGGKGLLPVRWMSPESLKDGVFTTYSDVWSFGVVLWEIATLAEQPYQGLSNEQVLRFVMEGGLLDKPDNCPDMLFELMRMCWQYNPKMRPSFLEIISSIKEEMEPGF

Row | Compound | IC50
1 | Cc1cc(Nc2nc(Nc3cc(C)c(C4CCN(CCC(F)(F)F)CC4)cc3F)ncc2Cl)n[nH]1 [Compound 24, 5-chloro-N^2-(2-fluoro-5-methyl-4-(1-(3,3,3-trifluoropropyl)piperidin-4-yl)phenyl)-N^4-(5-methyl-1H-pyrazol-3-yl)pyrimidine-2,4-diamine] | 85 nM
2 | Cc1cc(Nc2nc(Nc3cc(C)c(C4CCN(CCC(F)(F)F)CC4)cc3C)ncc2Cl)n[nH]1 [Compound 25, 5-chloro-N2-(2,5-dimethyl-4-(1-(3,3,3-trifluoropropyl)piperidin-4-yl)phenyl)-N4-(5-methyl-1H-pyrazol-3-yl)pyrimidine-2,4-diamine] | 31 nM
3 | Cc1cc(Nc2nc(Nc3cc(C)c(C4CCN(CC(F)(F)F)CC4)cc3F)ncc2Cl)n[nH]1 [Compound 26, 5-chloro-N2-(2-fluoro-5-methyl-4-(1-(2,2,2-trifluoroethyl)piperidin-4-yl)phenyl)-N4-(5-methyl-1H-pyrazol-3-yl)pyrimidine-2,4-diamine] | 142 nM
4 | Cc1cc(Nc2nc(Nc3cc(Cl)c(C4CCN(CCC(F)(F)F)CC4)cc3C)ncc2Cl)n[nH]1 [Compound 27, 5-chloro-N2-(5-chloro-2-methyl-4-(1-(3,3,3-trifluoropropyl)piperidin-4-yl)phenyl)-N4-(5-methyl-1H-pyrazol-3-yl)pyrimidine-2,4-diamine] | 44 nM
5 | Cc1cc(Nc2nc(Nc3cc(C4CCN(CCC(F)(F)F)CC4)c(F)cc3C)ncc2Cl)n[nH]1 [Compound 28, 5-chloro-N2-(4-fluoro-2-methyl-5-(1-(3,3,3-trifluoropropyl)piperidin-4-yl)phenyl)-N4-(5-methyl-1H-pyrazol-3-yl)pyrimidine-2,4-diamine] | 5460 nM
6 | Cc1cc(Nc2nc(Nc3cc(C)c(C4CCN(CC(O)C(F)(F)F)CC4)cc3C)ncc2Cl)n[nH]1 (stereo not drawn) [Compound 29, 3-(4-(4-(5-chloro-4-(5-methyl-1H-pyrazol-3-ylamino)pyrimidin-2-ylamino)-2,5-dimethylphenyl)piperidin-1-yl)-1,1,1-trifluoropropan-2-ol] | 23 nM
7 | Cc1cc(Nc2nc(Nc3cc(C)c(C4CCN(CC(O)C(F)(F)F)CC4)cc3F)ncc2Cl)n[nH]1 (stereo not drawn) [Compound 30, 3-(4-(4-(5-chloro-4-(5-methyl-1H-pyrazol-3-ylamino)pyrimidin-2-ylamino)-5-fluoro-2-methylphenyl)piperidin-1-yl)-1,1,1-trifluoropropan-2-ol] | 71 nM
8 | Cc1cc(Nc2nc(Nc3cc(C4CCN(CC(O)C(F)(F)F)CC4)c(F)cc3C)ncc2Cl)n[nH]1 (stereo not drawn) [Compound 31, 3-(4-(5-(5-chloro-4-(5-methyl-1H-pyrazol-3-ylamino)pyrimidin-2-ylamino)-2-fluoro-4-methylphenyl)piperidin-1-yl)-1,1,1-trifluoropropan-2-ol] | 6470 nM
9 | CNC(=O)CN1CCC(c2cc(F)c(Nc3ncc(Cl)c(Nc4cc(C5CC5)[nH]n4)n3)cc2C)CC1 [Compound 32, 2-(4-(4-(5-chloro-4-(5-cyclopropyl-1H-pyrazol-3-ylamino)pyrimidin-2-ylamino)-5-fluoro-2-methylphenyl)piperidin-1-yl)-N-methylacetamide] | 42 nM
10 | CNC(=O)CN1CCC(c2cc(C)c(Nc3ncc(Cl)c(Nc4cc(C5CC5)[nH]n4)n3)cc2C)CC1 [Compound 33, 2-(4-(4-(5-chloro-4-(5-cyclopropyl-1H-pyrazol-3-ylamino)pyrimidin-2-ylamino)-2,5-dimethylphenyl)piperidin-1-yl)-N-methylacetamide] | 6 nM
11 | Cc1cc(Nc2ncc(Cl)c(Nc3cc(C4CC4)[nH]n3)n2)c(F)cc1C1CCN(CC(N)=O)CC1 [Compound 34, 2-(4-(4-(5-chloro-4-(5-cyclopropyl-1H-pyrazol-3-ylamino)pyrimidin-2-ylamino)-5-fluoro-2-methylphenyl)piperidin-1-yl)acetamide] | 49 nM
12 | Cc1cc(C2CCN(CC(N)=O)CC2)c(C)cc1Nc1ncc(Cl)c(Nc2cc(C3CC3)[nH]n2)n1 [Compound 35, 2-(4-(4-(5-chloro-4-(5-cyclopropyl-1H-pyrazol-3-ylamino)pyrimidin-2-ylamino)-2,5-dimethylphenyl)piperidin-1-yl)acetamide] | 11 nM
13 | Cc1cc(Nc2nc(Nc3cc(C(F)(F)F)c(C4CCN(CC(N)=O)CC4)cc3F)ncc2Cl)n[nH]1 [Compound 36, 2-(4-(4-(5-chloro-4-(5-methyl-1H-pyrazol-3-ylamino)pyrimidin-2-ylamino)-5-fluoro-2-(trifluoromethyl)phenyl)piperidin-1-yl)acetamide] | 19 nM
14 | Cc1cc(Nc2nc(Nc3cc(C)c(C4CCN(CC(N)=O)CC4)cc3C)ncc2Cl)n[nH]1 [Compound 37, 2-(4-(4-(5-chloro-4-(5-methyl-1H-pyrazol-3-ylamino)pyrimidin-2-ylamino)-2,5-dimethylphenyl)piperidin-1-yl)acetamide] | 13 nM
15 | CNC(=O)CN1CCC(c2cc(C)c(Nc3ncc(Cl)c(Nc4cc(C)[nH]n4)n3)cc2C)CC1 [Compound 38, 2-(4-(4-(5-chloro-4-(5-methyl-1H-pyrazol-3-ylamino)pyrimidin-2-ylamino)-2,5-dimethylphenyl)piperidin-1-yl)-N-methylacetamide] | 10 nM
16 | Cc1cc(Nc2nc(Nc3cc(C)c(C4CCN(CC(N)=O)CC4)cc3F)ncc2Cl)n[nH]1 [Compound 39, 2-(4-(4-(5-Chloro-4-(5-methyl-1H-pyrazol-3-ylamino)pyrimidin-2-ylamino)-5-fluoro-2-methylphenyl)piperidin-1-yl)acetamide] | 19 nM
17 | Cc1cc(Nc2nc(Nc3cc(C)c(C4CCCN(CC(N)=O)C4)cc3C)ncc2Cl)n[nH]1 (stereo not drawn) [Compound 41, 2-(3-(4-(5-chloro-4-(5-methyl-1H-pyrazol-3-ylamino)pyrimidin-2-ylamino)-2,5-dimethylphenyl)piperidin-1-yl)acetamide] | 26 nM
18 | CNC(=O)CN1CCC(c2cc(F)c(Nc3ncc(Cl)c(Nc4cc(C)[nH]n4)n3)cc2C)CC1 [Compound 42, 2-(4-(4-(5-chloro-4-(5-methyl-1H-pyrazol-3-ylamino)pyrimidin-2-ylamino)-5-fluoro-2-methylphenyl)piperidin-1-yl)-N-methylacetamide] | 19 nM
19 | CNC(=O)CN1CCCC(c2cc(C)c(Nc3ncc(Cl)c(Nc4cc(C)[nH]n4)n3)cc2C)C1 (stereo not drawn) [Compound 44, 2-(3-(4-(5-chloro-4-(5-methyl-1H-pyrazol-3-ylamino)pyrimidin-2-ylamino)-2,5-dimethylphenyl)piperidin-1-yl)-N-methylacetamide] | 15 nM
20 | CNC(=O)CN1CCC(c2cc(C)c(Nc3ncc(Cl)c(Nc4cc(C)[nH]n4)n3)cc2Cl)CC1 [Compound 45, 2-(4-(2-chloro-4-(5-chloro-4-(5-methyl-1H-pyrazol-3-ylamino)pyrimidin-2-ylamino)-5-methylphenyl)piperidin-1-yl)-N-methylacetamide] | 18 nM
21 | CNC(=O)CN1CCC(c2cc(C)c(Nc3ncc(Cl)c(Nc4cc(C)[nH]n4)n3)cc2OC)CC1 [Compound 46, 2-(4-(4-(5-chloro-4-(5-methyl-1H-pyrazol-3-ylamino)pyrimidin-2-ylamino)-2-methoxy-5-methylphenyl)piperidin-1-yl)-N-methylacetamide] | 13 nM
22 | Cc1cc(Nc2nc(Nc3cc(C(F)(F)F)c(C4CCN(CC(N)=O)CC4)cc3C)ncc2Cl)n[nH]1 [Compound 47, 2-(4-(4-(5-chloro-4-(5-methyl-1H-pyrazol-3-ylamino)pyrimidin-2-ylamino)-5-methyl-2-(trifluoromethyl)phenyl)piperidin-1-yl)acetamide] | 22 nM
23 | Cc1cc(Nc2nc(Nc3cc(C4CCN(C(C)C(N)=O)CC4)c(F)cc3C)ncc2Cl)n[nH]1 (stereo not drawn) [Compound 48, 2-(4-(5-(5-chloro-4-(5-methyl-1H-pyrazol-3-ylamino)pyrimidin-2-ylamino)-2-fluoro-4-methylphenyl)piperidin-1-yl)propanamide] | 3680 nM
24 | Cc1cc(Nc2nc(Nc3cc(C)c(C4CCN(C(C)C(N)=O)CC4)cc3F)ncc2Cl)n[nH]1 (stereo not drawn) [Compound 49, 2-(4-(4-(5-chloro-4-(5-methyl-1H-pyrazol-3-ylamino)pyrimidin-2-ylamino)-5-fluoro-2-methylphenyl)piperidin-1-yl)propanamide] | 15 nM
